Data published in the NIST ThermoML archive (doi:10.1021/je020178w).
Numbers after ± are expanded uncertainties.

Key:
[1] = 308.15 K, 101.3 kPa, Liquid; for viscosity: Capillary tube (Ostwald / Ubbelohde) method
[2] = xn = mol fraction of the nth substance listed; details: 308.15 K, 101.3 kPa, Liquid; for viscosity: Capillary tube (Ostwald / Ubbelohde) method

OCCO [1,2-ethanediol]
Details	viscosity [mPa·s]
[1]	10.59 ± 0.14

CNC(C)=O [N-methylacetamide]
[1]
Details	mass density [kg/m3]	viscosity [mPa·s]
–	958.9 ± 7.1	3.67 ± 0.05

CNC(C)=O [N-methylacetamide] + OCCO
[2]
Details	mass density [kg/m3]
x1 = 0.0847	1089.5 ± 1.5
x1 = 0.212	1068.3 ± 1.5
x1 = 0.3298	1049.4 ± 1.5
x1 = 0.4247	1034.9 ± 1.4
x1 = 0.5255	1020.5 ± 1.4
x1 = 0.6275	1006.3 ± 1.4
x1 = 0.7471	990.5 ± 1.4
x1 = 0.8412	978.6 ± 1.4
x1 = 0.9347	967.3 ± 1.4
x1 = 1	958.9 ± 1.4

CNC(C)=O [N-methylacetamide] + OCCOCCO
[2]
Details	mass density [kg/m3]	viscosity [mPa·s]
x1 = 0.1121	1094.4 ± 1.5	16.13 ± 0.24
x1 = 0.2394	1079.9 ± 1.5	14.47 ± 0.21
x1 = 0.3419	1067.4 ± 1.5	13.11 ± 0.19
x1 = 0.4564	1052.2 ± 1.5	11.57 ± 0.17
x1 = 0.5574	1037.8 ± 1.5	10.17 ± 0.14
x1 = 0.6538	1023.2 ± 1.5	8.8 ± 0.12
x1 = 0.7649	1005.3 ± 1.5	7.2 ± 0.1
x1 = 0.8343	993 ± 1.5	6.16 ± 0.08
x1 = 0.9252	975.2 ± 1.4	4.8 ± 0.06
x1 = 1	958.9 ± 1.4	3.67 ± 0.05

CNC(C)=O [N-methylacetamide] + OCCOCCOCCO
[2]
Details	mass density [kg/m3]	viscosity [mPa·s]
x1 = 0.1142	1103.7 ± 1.5	21.93 ± 0.36
x1 = 0.2059	1095.7 ± 1.5	20.39 ± 0.33
x1 = 0.3069	1085.6 ± 1.5	18.59 ± 0.29
x1 = 0.4265	1071.8 ± 1.5	16.35 ± 0.25
x1 = 0.5415	1056.3 ± 1.5	14.01 ± 0.21
x1 = 0.6392	1041 ± 1.5	11.91 ± 0.17
x1 = 0.7266	1025.3 ± 1.5	9.98 ± 0.14
x1 = 0.8278	1004.5 ± 1.5	7.74 ± 0.11
x1 = 0.9307	979.5 ± 1.4	5.3 ± 0.07
x1 = 1	958.9 ± 1.4	3.67 ± 0.05

OCCOCCO [diethylene glycol]
[1]
Details	mass density [kg/m3]	viscosity [mPa·s]
–	1105.6 ± 1.5	17.59 ± 0.27

OCCOCCO [diethylene glycol] + CNC(C)=O
[2], x2 = 0
Details	mass density [kg/m3]	viscosity [mPa·s]
–	1105.6 ± 1.5	17.59 ± 0.27

OCCOCCOCCO [triethylene glycol]
[1]
Details	mass density [kg/m3]	viscosity [mPa·s]
–	1112.1 ± 1.5	23.84 ± 0.39

OCCOCCOCCO [triethylene glycol] + CNC(C)=O
[2], x2 = 0
Details	mass density [kg/m3]	viscosity [mPa·s]
–	1112.1 ± 1.5	23.84 ± 0.39
